Type in all cases: cell-based
The target in test [1] is T1, TLR7 (Homo sapiens, UniProt Q9NYK1).
T1 construct: expressed in transfected cells; host or cells: HEK293 (HEK-Blue-7 cells)
T1 sequence (Q9NYK1 27-1049): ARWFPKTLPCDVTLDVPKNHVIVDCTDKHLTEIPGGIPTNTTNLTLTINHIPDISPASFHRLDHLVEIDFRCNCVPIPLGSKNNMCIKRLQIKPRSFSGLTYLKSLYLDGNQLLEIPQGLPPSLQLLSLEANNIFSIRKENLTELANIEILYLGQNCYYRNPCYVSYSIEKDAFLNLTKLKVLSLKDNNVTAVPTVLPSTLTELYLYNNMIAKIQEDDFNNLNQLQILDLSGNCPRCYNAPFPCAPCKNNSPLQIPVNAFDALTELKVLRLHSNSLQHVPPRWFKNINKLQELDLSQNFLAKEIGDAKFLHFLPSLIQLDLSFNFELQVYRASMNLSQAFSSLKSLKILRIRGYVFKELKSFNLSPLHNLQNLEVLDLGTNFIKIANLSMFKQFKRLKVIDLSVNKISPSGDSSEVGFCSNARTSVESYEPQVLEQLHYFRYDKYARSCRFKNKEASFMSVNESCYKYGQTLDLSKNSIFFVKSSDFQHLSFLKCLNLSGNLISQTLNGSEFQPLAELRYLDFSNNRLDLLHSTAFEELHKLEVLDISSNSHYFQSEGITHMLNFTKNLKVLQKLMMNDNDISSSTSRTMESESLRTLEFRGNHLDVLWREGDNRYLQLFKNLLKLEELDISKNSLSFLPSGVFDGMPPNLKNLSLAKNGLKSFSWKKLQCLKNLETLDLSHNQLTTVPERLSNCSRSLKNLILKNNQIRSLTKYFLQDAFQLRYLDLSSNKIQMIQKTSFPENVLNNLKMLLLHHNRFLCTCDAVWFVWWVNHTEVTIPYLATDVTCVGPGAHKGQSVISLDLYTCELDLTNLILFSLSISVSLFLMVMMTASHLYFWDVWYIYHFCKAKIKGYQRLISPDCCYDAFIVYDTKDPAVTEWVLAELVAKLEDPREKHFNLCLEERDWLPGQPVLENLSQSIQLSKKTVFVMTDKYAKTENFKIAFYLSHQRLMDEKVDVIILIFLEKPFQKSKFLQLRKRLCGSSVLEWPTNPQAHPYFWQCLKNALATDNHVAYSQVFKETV
The test is described as follows: TLR7 reporter gene assay (NF-κB induction, HEK-Blue-7 cells), agonism. The settings on record: Table 1; ND = not detected; read-out: TLR7 Agonism. The essentials:
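HEK293 cells stably transfected with human TLR7 or TLR8, MD2 and NF-κB/AP-1-driven secreted alkaline phosphatase, grown to confluency, then exposed to graded compound concentrations. Secreted alkaline phosphatase in supernatant measured with chromogen at 620 nm as NF-κB induction.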
A general note: A reporter such as luciferase makes a cellular process visible.

Test [2] concerns the target T2, TLR8 (Homo sapiens, UniProt Q9NR97).
T2 construct: expressed in transfected cells; host or cells: HEK293 (HEK-Blue-8 cells)
T2 sequence (Q9NR97 27-1041): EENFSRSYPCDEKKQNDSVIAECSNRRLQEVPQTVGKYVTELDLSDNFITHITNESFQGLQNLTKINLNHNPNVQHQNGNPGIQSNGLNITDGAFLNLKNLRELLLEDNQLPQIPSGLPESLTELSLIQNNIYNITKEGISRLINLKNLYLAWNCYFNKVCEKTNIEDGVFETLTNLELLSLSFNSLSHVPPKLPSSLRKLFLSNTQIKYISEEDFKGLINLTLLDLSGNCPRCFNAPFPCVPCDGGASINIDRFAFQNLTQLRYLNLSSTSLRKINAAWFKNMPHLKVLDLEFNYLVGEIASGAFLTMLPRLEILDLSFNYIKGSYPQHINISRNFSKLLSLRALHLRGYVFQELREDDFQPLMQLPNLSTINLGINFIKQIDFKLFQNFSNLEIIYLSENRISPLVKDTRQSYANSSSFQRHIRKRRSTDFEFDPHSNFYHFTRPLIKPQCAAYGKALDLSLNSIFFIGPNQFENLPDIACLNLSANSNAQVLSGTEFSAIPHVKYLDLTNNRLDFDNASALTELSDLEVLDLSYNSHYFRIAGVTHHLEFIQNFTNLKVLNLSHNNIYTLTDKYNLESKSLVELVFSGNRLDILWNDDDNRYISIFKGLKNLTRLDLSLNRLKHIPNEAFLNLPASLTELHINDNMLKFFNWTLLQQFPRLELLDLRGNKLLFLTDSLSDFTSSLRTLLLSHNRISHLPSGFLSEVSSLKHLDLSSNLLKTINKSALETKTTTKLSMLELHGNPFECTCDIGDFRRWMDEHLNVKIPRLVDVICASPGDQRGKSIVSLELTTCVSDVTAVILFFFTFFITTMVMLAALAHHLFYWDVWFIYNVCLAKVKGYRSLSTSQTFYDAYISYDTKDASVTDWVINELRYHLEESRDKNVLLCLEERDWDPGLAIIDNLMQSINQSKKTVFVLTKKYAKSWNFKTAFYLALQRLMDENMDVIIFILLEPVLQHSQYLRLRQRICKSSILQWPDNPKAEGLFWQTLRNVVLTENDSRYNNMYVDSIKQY
Briefly: TLR8 reporter gene assay (NF-κB induction, HEK-Blue-8 cells), agonism. The text has this: NF-κB induction: The induction of NF-κB was quantified using HEK-Blue-7 cells and HEK-Blue-8 cells as previously described by us.^8,24 HEK293 cells were stably transfected with human TLR7 (or human TLR8), MD2, and secreted alkaline phosphatase (sAP), and were maintained in HEK-Blue™ Selection medium containing zeocin and normocin. Stable expression of secreted alkaline phosphatase (sAP) under control of NF-κB/AP-1 promoters is inducible by the TLR7 (or TLR8) agonists, and extracellular sAP in the supernatant is proportional to NF-κB induction. HEK-Blue cells were incubated at a density of […] in a volume of 80 μL/well, in 384-well, flat-bottomed, cell culture-treated microtiter plates until confluency was achieved, and subsequently graded concentrations of stimuli. sAP was assayed spectrophotometrically using an alkaline phosphatase-specific chromogen (present in HEK-detection medium as supplied by the vendor) at 620 nm.
(§1) The induction of NF-κB was quantified using HEK-Blue-3, HEK-Blue-7 and HEK-Blue-8 cells as previously described by us.^8,24,51 HEK293 cells were stably transfected with human TLR3 (or human TLR7 or human TLR8), MD2, and secreted alkaline phosphatase (sAP), and were maintained in HEK-Blue™ Selection medium containing zeocin and normocin. Stable expression of secreted alkaline phosphatase (sAP) under control of NF-κB/AP-1 promoters is inducible by the TLR3 (or TLR7 or TLR8) agonists, and extracellular sAP in the supernatant is proportional to NF-κB induction. HEK-Blue cells were incubated at a density of ˜10^5 cells/ml in a volume of 80 μl/well, in 384-well, flat-bottomed, cell culture-treated microtiter plates until confluency was achieved, and subsequently graded concentrations of stimuli. sAP was assayed spectrophotometrically using an alkaline phosphatase-specific chromogen (present in HEK-detection medium as supplied by the vendor) at 620 nm.

In test [3] the test system is human peripheral blood mononuclear cells. Briefly: IFN-α induction in human PBMCs (ELISA). The settings on record: hPBMC, 12 h. How it is done: FIG. 21 is a graph illustrating IFN-α induction by select dimers in human peripheral blood mononuclear cells. IFN-α was assayed by analyte specific ELISA after incubation of hPBMCs with graded concentrations of the test compound for 12 h.
Aliquots (10^6 cells in 100 μL) of hPBMCs isolated from blood obtained from healthy human donors after informed consent by conventional Ficoll-Hypaque gradient centrifugation were stimulated for 12 h with graded concentrations of test compounds. The supernatant was isolated by centrifugation, diluted 1:20, and IFN-α was assayed in triplicate using a high-sensitivity human IFN-α-specific ELISA kit (PBL Interferon Source, Piscataway, N.J.).
For orientation: An ELISA detects its analyte on a solid surface through an enzyme-linked reagent.

The target in test [4] is T1, TLR7. The test is described as follows: TLR7 reporter gene assay, antagonism (gardiquimod as agonist).
From the text: as §1
(§2) Antagonism assays were done as described by us earlier^73 using the following agonists at a constant concentration: TLR3 Poly(I:C) (10 ng/mL); TLR7: gardiquimod (1 μg/mL); TLR8: CL075 (1 μg/mL) mixed with graded concentrations of the test compounds.

In test [5] the target is T2, TLR8. The test is described as follows: TLR8 reporter gene assay, antagonism (CL075 as agonist).
From the text: as §1, §2

Test [6] has as its system TLR7 and TLR8-induced cytokine and chemokine release. The test is described as follows: Inhibition of TLR7- and TLR8-mediated cytokine and chemokine production in human PBMCs. The note with it: hPBMCs. As to the method: FIGS. 22A-[…] illustrate inhibition of TLR7-mediated (FIGS. 22A-22D) and TLR8-mediated (FIGS. 22E-[…]) proinflammatory cytokine production in human peripheral blood mononuclear cells by chloroquine or 47a. Proinflammatory cytokines were assayed by cytokine bead array methods after incubation of hPBMCs with graded concentrations of the test compound for 12 h in the presence of 10 μg/ml of either CL075 (TLR8 agonist) or gardiquimod (TLR7 agonist). FIGS. 23A-23D illustrate inhibition of TLR7-mediated (FIGS. 23A-23B) and TLR8-mediated (FIGS. 23C-3D) chemokine production in human peripheral blood mononuclear cells by chloroquine or 47a. Chemokines were assayed by cytokine bead array methods after incubation of hPBMCs with graded concentrations of the test compound for 12 h in the presence of 10 μg/ml of either CL075 (TLR8 agonist) or gardiquimod (TLR7 agonist). Aliquots (10^6 cells in 100 μL) of hPBMCs isolated from blood obtained from healthy human donors after informed consent by conventional Ficoll-Hypaque gradient centrifugation were stimulated for 12 h with graded concentrations of test compounds. The supernatant was isolated by centrifugation, diluted 1:20, and cytokines and chemokines were assayed in triplicate using analyte-specific cytokine/chemokine bead array assays as reported by us previously.^74

Test [7] concerns the target T1, TLR7. The test is described as follows: Schild plot analysis of inhibition of TLR7-induced activation. As to the method: (§3) Experiments were performed in checker-board format, using a liquid handler, in 384-well plates which permitted the concentrations of both agonist and antagonist to be varied simultaneously along the two axes of the plate. Either imidazoquinoline (TLR7-specific agonist) or CL075 (TLR8-specific agonist) was used at a starting concentration of 20 μg/mL, and were two-fold diluted serially (along the rows). Next, 47a or chloroquine was two-fold diluted serially in HEK detection medium (along columns). Reporter cells were then added, incubated, and NF-κB activation measured as described in the text. A and A′ (Y-axis) are defined respectively as the EC50 value in the absence of antagonist, and the EC50 values in the presence of varying concentrations of antagonist.

Test [8] addresses T2, TLR8. Briefly: Schild plot analysis of inhibition of TLR8-induced activation. How it is done:
as §3

These results are taken from patent US10208037B2, “Toll-like receptor-7 and -8 modulatory 1H imidazoquinoline derived compounds” (The University of Kansas, priority 2011, dated 2019).

As to `CCCCc1nc2c(N)nc3ccccc3c2n1Cc1ccc(CNC(=O)CCCCCCCCCCC(=O)NCc2ccc(Cn3c(CCCC)nc4c(N)nc5ccccc5c43)cc2)cc1` [Compound 52c, N^1,N^12-bis(4-((4-amino-2-butyl-1H-imidazo[4,5-c]quinolin-1-yl)methyl)benzyl)dodecane Diamide], the EC50 is 0.17 µM on TLR7 [1] and 4.78 µM on TLR8 [2] (Table 1, ND = not detected). On TLR8 [2], the “TLR8-agonistic activity (in words)” value is “displayed both TLR7 and TLR8 agonism”. Further, the “IFN-α induction (in words)” value in test [3] is on record as “most potent”.

Take `Nc1nc2ccccc2c2c1nc(CCCc1nc3c(N)nc4ccccc4c3n1Cc1ccccc1)n2Cc1ccccc1` [Compound 47a, 2,2′-(propane-1,3-diyl)bis(1-benzyl-1H-imidazo[4,5-c]quinolin-4-amine)]: the “TLR7 antagonistic activity (in words)” value at TLR7 [4] is recorded as “potent antagonistic activity”. Further, the IC50 is 3.1 µM at TLR7 [4] (agonist gardiquimod 1 μg/mL, ND = not detected); 3.2 µM on TLR8 [5] (agonist CL075 1 μg/mL, ND = not detected); 0.05 to 0.3 µM in test [6] (Homo sapiens, PBMC, 12 h, 10 μg/ml CL075 or gardiquimod). Also, at TLR8 [5], the “TLR8 antagonistic activity (in words)” value is recorded as “potent antagonistic activity”. Also, the “Inhibition of TNF-α and IL-1β production (in words)” value in test [6] is on record as “potently inhibits”. Further, on TLR7 [7], the “Schild plot slope, TLR7 inhibition” value is 1.12. Besides, the “Schild plot slope, TLR8 inhibition” value on TLR8 [8] turned out to be 0.51.

For orientation: IC50 means the midpoint of a concentration-inhibition curve.
